Patent publication US20240050342A1, “PROLIPID COMPOSITION FOR PERSONALIZED BENEFITS AND METHOD FOR USING THE SAME” (Conopco, Inc., d/b/a UNILEVER, priority 2020, published 2024)

Columns and labels:
human skin discards = assay: Sphingosine/ceramide formation from deuterated palmitic acid in ex vivo human skin model (LC/MS/MS); format: cell-based
Experimental: In this experiment, a standard topical base composition was charged with 3% by weight deuterated d31palmitic acid and a second base was charged with 3% by weight deuterated d31palmitic acid in combination with 3% by weight 12-hydroxystearic acid. Both compositions were applied to separate human skin discards. Biopsies were taken, placed on collagen and incubated at 37° C. with about 5% carbon dioxide. Samples were harvested after 5 days, extracted, and fractionated to obtain ceramide fractions. Elongation of deuterated d31Palmitic acid (dC16:0) with and without the PPAR activator 12-hydroxystearic acid was investigated in an ex vivo human skin model. The ceramide fraction obtained was hydrolyzed to release deuterated sphingosine and analyzed via liquid chromatography/tandem mass-spectrometry (LC/MS/MS). This technique was used to identify and measure “precursor-to-product” ion transitions specific to deuterated sphingosine, and therefore, to track sphingosine formation from deuterated palmitic acid applied to skin discards. Unexpectedly, the amount of resulting deuterated sphingosine increased in the presence the PPAR activator. The numbers in units (“u”) provided depict the signal abundance of the biomolecules looked and accounted for in a sample as determined by LC/MS/MS. […]

[1] = test system: neonatal keratinocyte model; assay: Elongation of deuterated d31-Palmitic acid with and without 12-hydroxystearic acid in neonatal keratinocyte model (LC/MS/MS); format: cell-based
Experimental: In this experiment the elongation of deuterated d31-Palmitic acid (dC16:0) with and without PPAR activator 12-hydroxystearic was investigated in a neonatal keratinocyte model. Keratinocytes were grown in an EpiLife™ medium (with calcium, from Thermo Fisher Scientific) in six well plate formats until confluency. Confluent keratinocytes were differentiated with CaCl2 treatment. The cells in wells deplete of PPAR activator were treated with the substrate: 1 uM of d31-Palmitic acid (dC16:0) every second or third day until harvested on day 7. The remainder of the samples were treated with 1 uM of the aforementioned dC16:0 and 12 hydroxystearic acid at the concentrations shown in the tables. Samples were extracted and analyzed via liquid chromatography/tandem mass-spectrometry (LC/MS/MS) for deuterated d31-Palmitic acid (dC16:0) elongation. Precursor-to-product ion transitions, specific to deuterated elongated fatty acids derived from d31-Palmitic acid, were identified and measured.

[2] = test system: EpiDerm in vitro 3D skin equivalents of keratinocytes; assay: Elongation of deuterated d23-Lauric acid in EpiDerm 3D skin equivalents (LC/MS/MS); format: cell-based, human; conditions: for d23 C12:0 signal: lauric acid prior to elongation
Experimental: In this experiment, EpiDerm in vitro 3D skin equivalents of keratinocytes (commercially available from Matek) were used as a model system to investigate bioconversions in human skin. The skin equivalents were topically treated with deuterated d23-Lauric acid (dC12:0) in propylene glycol:ethanol (70:30), one time per day for seven days with concentrations in the range of 400 ng/cm^2 to 5000 ng/cm^2. Samples were harvested, extracted and analyzed via liquid chromatography/tandem mass-spectrometry (LC/MS/MS) for deuterated d23-Lauric acid elongation. Precursor-to-product (i.e., elongation) ion transitions, specific to deuterated elongated fatty acids derived from d23 Lauric acid, were identified and measured. The first column depicts the signal for lauric acid provided to the EpiDerm prior to elongation.

[3] = 12HSA 3 uM with 1 uM dC16:0, harvested day 7
[4] = 12HSA 10 uM with 1 uM dC16:0, harvested day 7
[5] = 12HSA 30 uM with 1 uM dC16:0, harvested day 7
[6] = 12HSA 100 uM with 1 uM dC16:0, harvested day 7
[7] = 400 ng/cm2, once per day for seven days
[8] = 1000 ng/cm2, once per day for seven days
[9] = 5000 ng/cm2 dC12:0, once per day for seven days
[10] = 1 uM d31-Palmitic acid, No 12 HSA, harvested day 7

Compound: CCCCCCC(O)CCCCCCCCCCC(=O)O (stereo not shown) [12HSA, 12-hydroxystearic acid]
- amount of resulting deuterated sphingosine in the presence of the PPAR activator (human skin discards; 3% 12-hydroxystearic acid with 3% d31palmitic acid vs d31palmitic acid alone): increased
- dC16:0 signal [1, 3]: 486506 u
- dC18:0 signal [1, 3]: 710249 u
- dC20:0 signal [1, 3]: 11478 u
- dC22:0 signal [1, 3]: 94091 u
- dC24:0 signal [1, 3]: 294398 u
- dC26:0 signal [1, 3]: 60180 u
- dC16:0 signal [1, 4]: 503533 u
- dC18:0 signal [1, 4]: 713499 u
- dC20:0 signal [1, 4]: 13666 u
- dC22:0 signal [1, 4]: 98634 u
- dC24:0 signal [1, 4]: 306176 u
- dC26:0 signal [1, 4]: 62141 u
- dC16:0 signal [1, 5]: 921997 u
- dC18:0 signal [1, 5]: 792317 u
- dC20:0 signal [1, 5]: 18245 u
- dC22:0 signal [1, 5]: 131062 u
- dC24:0 signal [1, 5]: 470314 u
- dC26:0 signal [1, 5]: 109818 u
- dC16:0 signal [1, 6]: 677241 u
- dC18:0 signal [1, 6]: 750585 u
- dC20:0 signal [1, 6]: 75060 u
- dC22:0 signal [1, 6]: 201806 u
- dC24:0 signal [1, 6]: 774622 u
- dC26:0 signal [1, 6]: 219006 u
- effect on formation of elongated fatty acids from d31-Palmitic acid ([1]; compared to samples deplete of the activator): boosts and enhances the formation of elongated fatty acids from d31C16:0 to d31C26:0

Compound: [2H]C([2H])([2H])C([2H])([2H])C([2H])([2H])C([2H])([2H])C([2H])([2H])C([2H])([2H])C([2H])([2H])C([2H])([2H])C([2H])([2H])C([2H])([2H])C([2H])([2H])C(=O)O [dC12:0, d23-Lauric acid]
- d23 C14:0 signal [2, 7]: 4670 u
- d23 C16:0 signal [2, 7]: 46204 u
- d23 C18:0 signal [2, 7]: 140851 u
- d23 C20 signal [2, 7]: 20848 u
- d23 C22:0 signal [2, 7]: 45885 u
- d23 C24:0 signal [2, 7]: 68863 u
- d23 C12:0 signal [2, 7]: 24559 u
- d23 C14:0 signal [2, 8]: 7481 u
- d23 C16:0 signal [2, 8]: 338885 u
- d23 C18:0 signal [2, 8]: 467624 u
- d23 C20 signal [2, 8]: 54050 u
- d23 C22:0 signal [2, 8]: 128640 u
- d23 C24:0 signal [2, 8]: 187974 u
- d23 C12:0 signal [2, 8]: 51904 u
- d23 C14:0 signal [2, 9]: 53655 u
- d23 C16:0 signal [2, 9]: 1026969 u
- d23 C18:0 signal [2, 9]: 1355969 u
- d23 C20 signal [2, 9]: 227595 u
- d23 C22:0 signal [2, 9]: 513274 u
- d23 C24:0 signal [2, 9]: 758093 u
- d23 C12:0 signal [2, 9]: 528578 u
- bioconversion/elongation of dC12:0 in skin equivalents ([2]; enzymes present in the skin equivalents): convert to dC16:0 via fatty acid synthase enzyme, followed by further elongation of dC16:0 to deuterated Lignoceric acid C24:0

Compound: [2H]C([2H])([2H])C([2H])([2H])C([2H])([2H])C([2H])([2H])C([2H])([2H])C([2H])([2H])C([2H])([2H])C([2H])([2H])C([2H])([2H])C([2H])([2H])C([2H])([2H])C([2H])([2H])C([2H])([2H])C([2H])([2H])C([2H])([2H])C(=O)O [deuterated palmitic acid, d31-Palmitic acid]
- Deuterated Sphingosine signal abundance (human skin discards; hydrolyzed ceramide fraction, composition with 3% by weight of each ingredient applied to human skin discards, harvested after 5 days, 37° C.): 36,958 u
- dC16:0 signal [1, 10]: 646987 u
- dC18:0 signal [1, 10]: 663577 u
- dC20:0 signal [1, 10]: 11233 u
- dC22:0 signal [1, 10]: 90496 u
- dC24:0 signal [1, 10]: 278426 u
- dC26:0 signal [1, 10]: 60009 u
